Experimental data taken from patent US10131652B2, “Pyrimidinyloxy benzene derivatives as herbicides” (E. I. DU PONT DE NEMOURS AND COMPANY, priority 2014, dated 2018).

Tests used:
Format in all cases: in vivo
[1] = tested on: barnyardgrass (Echinochloa crus-galli); assay: Test C flooded paddy test plant response; conditions: Flood, 250 g ai/ha; scale of 0 to 100 where 0 is no effect and 100 is complete control; 13 to 15 days
In short: (§1)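 Water-applied treatment: compounds go directly into floodwater standing 3 cm over the soil of pots holding 2-leaf-stage plants. Depth is kept constant; plants stay in a greenhouse 13 to 15 days before visual comparison with controls on a 0–100 scale.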

rice (Oryza sativa) = assay: Test C flooded paddy test plant response; conditions: Flood, 250 g ai/ha; scale of 0 to 100 where 0 is no effect and 100 is complete control; 13 to 15 days
In short: as §1

[2] = tested on: ducksalad (Heteranthera limosa); assay: Test C flooded paddy test plant response; conditions: Flood, 250 g ai/ha; scale of 0 to 100 where 0 is no effect and 100 is complete control; 13 to 15 days
In short: as §1

[3] = tested on: small-flower umbrella sedge (Cyperus difformis); assay: Test C flooded paddy test plant response; conditions: Flood, 250 g ai/ha; scale of 0 to 100 where 0 is no effect and 100 is complete control; 13 to 15 days
In short: as §1

[4] = tested on: barnyardgrass (Echinochloa crus-galli); assay: Test B pre-/postemergence plant response
In short: (§2)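 Evaluation is visual, about 10 days after application, rating injury from 0 (none) to 100 (complete control) relative to untreated controls. Application was a preemergence soil spray on seeded pots or a postemergence spray on one- to two-leaf plants.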

[5] = tested on: wheat (Triticum aestivum); assay: Test B pre-/postemergence plant response
In short: as §2

[6] = tested on: pigweed (Amaranthus retroflexus); assay: Test B pre-/postemergence plant response
In short: as §2

corn (Zea mays) = assay: Test B pre-/postemergence plant response
In short: as §2

[7] = tested on: giant foxtail (Setaria faberii); assay: Test B pre-/postemergence plant response
In short: as §2

[8] = tested on: ragweed (common ragweed, Ambrosia elatior); assay: Test D pre-/postemergence plant response
Excerpt: (§3) Seeds of plant species selected from blackgrass (Alopecurus myosuroides), Italian ryegrass (Lolium multiflorum), winter wheat (Triticum aestivum), galium (catchweed bedstraw, Galium aparine), corn (Zea mays), large (Lg) crabgrass (Digitaria sanguinalis), giant foxtail (Setaria faberii), johnsongrass (Sorghum halepense), lambsquarters (Chenopodium album), morningglory (Ipomoea coccinea), yellow nutsedge (Cyperus esculentus), pigweed (Amaranthus retroflexus), ragweed (common ragweed, Ambrosia elatior), soybean (Glycine max), bamyardgrass (Echinochloa crus-galli), oilseed rape (Brassica napus), waterhemp (common waterhemp, Amaranthus rudis), and velvetleaf (Abutilon theophrasti) were planted into a blend of loam soil and sand and treated preemergence with test chemicals formulated in a non-phytotoxic solvent mixture which included a surfactant. At the same time, plants selected from these crop and weed species and also kochia (Kochia scoparia), wild oat (Avena fatua), and chickweed (common chickweed, Stellaria media) were planted in pots containing Redi-Earth® planting medium (Scotts Company, 14111 Scottslawn Road, Marysville, Ohio 43041) comprising spaghnum peat moss, vermiculite, wetting agent and starter nutrients and treated with postemergence applications of test chemicals formulated in the same manner. Plants ranged in height from 2 to 18 cm (1- to 4-leaf stage) for postemergence treatments. Treated plants and controls were maintained in a greenhouse for 13 to 15 days, after which time all species were compared to controls and visually evaluated. Plant response ratings, summarized in Table D, are based on a scale of 0 to 100 where 0 is no effect and 100 is complete control. A dash (-) response means no test result.

[9] = tested on: galium (catchweed bedstraw, Galium aparine); assay: Test D pre-/postemergence plant response
Excerpt: as §3

[10] = tested on: oilseed rape (Brassica napus); assay: Test D pre-/postemergence plant response
Excerpt: as §3

[11] = tested on: winter wheat (Triticum aestivum); assay: Test D pre-/postemergence plant response
Excerpt: as §3

[12] = tested on: johnsongrass (Sorghum halepense); assay: Test D pre-/postemergence plant response
Excerpt: as §3

[13] = tested on: yellow nutsedge (Cyperus esculentus); assay: Test D pre-/postemergence plant response
Excerpt: as §3

[14] = 125 g ai/ha, postemergence, 0 to 100 scale, 0 no effect, 100 complete control
[15] = Postemergence, 500 g ai/ha, 0 to 100 scale (0 no effect, 100 complete control)
[16] = Preemergence, 125 g ai/ha, 0 to 100 scale (0 no effect, 100 complete control)
[17] = Preemergence, 500 g ai/ha, 0 to 100 scale where 0 is no effect and 100 is complete control
[18] = Postemergence, 31 g ai/ha, scale 0 to 100 (0 no effect, 100 complete control)
[19] = Postemergence, 62 g ai/ha, scale 0 to 100, 0 no effect, 100 complete control
[20] = Postemergence, 125 g ai/ha, scale 0 to 100, 0 no effect, 100 complete control
[21] = 31 g ai/ha, Postemergence, 0 to 100 scale, 0 no effect, 100 complete control
[22] = 31 g ai/ha, Preemergence, 0 to 100 scale where 0 is no effect and 100 is complete control
[23] = Preemergence, 125 g ai/ha, 0 to 100 scale where 0 is no effect and 100 is complete control
[24] = Postemergence, 16 g ai/ha, scale 0 to 100 (0 no effect, 100 complete control)
[25] = Preemergence, 16 g ai/ha, scale 0 to 100 (0 no effect, 100 complete control)
[26] = Preemergence, 31 g ai/ha, scale 0 to 100 (0 no effect, 100 complete control)
[27] = Preemergence, 62 g ai/ha, scale 0 to 100 (0 no effect, 100 complete control)

FC(F)(F)c1cc(-c2c(Br)cccc2Oc2ncc(Cl)cn2)no1 [Compound 170]
Barnyardgrass plant response rating [1]: 0
Rice plant response rating (rice (Oryza sativa)): 0
Ducksalad plant response rating [2]: 0
Sedge, Umbrella plant response rating [3]: 0
Plant response rating, Barnyardgrass [4, 14]: 0
Plant response rating, Barnyardgrass [4, 15]: 20
Barnyardgrass plant response rating [4, 16]: 0
Plant response rating, Barnyardgrass [4, 17]: 20
Plant response rating, Wheat [5, 14]: 0
Plant response rating, Wheat [5, 15]: 30
Plant response rating, Pigweed [6, 14]: 100
Plant response rating, Pigweed [6, 15]: 100
Pigweed plant response rating [6, 16]: 100
Plant response rating, Pigweed [6, 17]: 100
Plant response rating, Corn (corn (Zea mays); [14]): 20
Plant response rating, Corn (corn (Zea mays); [15]): 20
Plant response rating, Foxtail, Giant [7, 14]: 30
Plant response rating, Foxtail, Giant [7, 15]: 50
Foxtail, Giant plant response rating [7, 16]: 60
Plant response rating, Foxtail, Giant [7, 17]: 90
Ragweed plant response rating [8, 18]: 5
Plant response rating, Ragweed [8, 19]: 10
Plant response rating, Ragweed [8, 20]: 10
Galium plant response rating [9, 18]: 50
Plant response rating, Galium [9, 19]: 65
Plant response rating, Galium [9, 20]: 80
Oilseed Rape plant response rating [10, 18]: 5
Plant response rating, Oilseed Rape [10, 19]: 40
Plant response rating, Oilseed Rape [10, 20]: 25
Wheat plant response rating [11, 18]: 20
Plant response rating, Wheat [11, 19]: 10
Plant response rating, Wheat [11, 20]: 15
Johnsongrass plant response rating [12, 18]: 0
Plant response rating, Johnsongrass [12, 19]: 0
Plant response rating, Johnsongrass [12, 20]: 5
Nutsedge, Yellow plant response rating [13, 18]: 5
Plant response rating, Nutsedge, Yellow [13, 19]: 5
Plant response rating, Nutsedge, Yellow [13, 20]: 10

Fc1cccc(Oc2ncc(Br)cn2)c1-c1cc(C(F)F)on1 [Compound 118]
Barnyardgrass plant response rating [1]: 50
Rice plant response rating (rice (Oryza sativa)): 45
Ducksalad plant response rating [2]: 100
Sedge, Umbrella plant response rating [3]: 100
Plant response rating, Barnyardgrass [4, 21]: 70
Plant response rating, Barnyardgrass [4, 22]: 70
Plant response rating, Barnyardgrass [4, 14]: 100
Plant response rating, Barnyardgrass [4, 23]: 100
Plant response rating, Wheat [5, 21]: 20
Plant response rating, Wheat [5, 14]: 60
Plant response rating, Pigweed [6, 21]: 100
Plant response rating, Pigweed [6, 22]: 100
Plant response rating, Pigweed [6, 14]: 100
Plant response rating, Corn (corn (Zea mays); [21]): 50
Plant response rating, Corn (corn (Zea mays); [14]): 100
Plant response rating, Foxtail, Giant [7, 21]: 90
Plant response rating, Foxtail, Giant [7, 22]: 100
Plant response rating, Foxtail, Giant [7, 14]: 100
Plant response rating, Foxtail, Giant [7, 23]: 100
Ragweed plant response rating [8, 24]: 80
Ragweed plant response rating [8, 18]: 45
Plant response rating, Ragweed [8, 19]: 55
Plant response rating, Ragweed [8, 20]: 85
Plant response rating (scale 0 to 100), Ragweed ([8]; Preemergence, 125 g ai/ha): 85
Plant response rating, Ragweed [8, 25]: 85
Plant response rating, Ragweed [8, 26]: 20
Plant response rating, Ragweed [8, 27]: 70
Galium plant response rating [9, 24]: 85
Galium plant response rating [9, 18]: 90
Plant response rating, Galium [9, 19]: 90
Plant response rating, Galium [9, 20]: 98
Plant response rating (scale 0 to 100), Galium ([9]; Preemergence, 125 g ai/ha): 95
Plant response rating, Galium [9, 25]: 60
Plant response rating, Galium [9, 26]: 98
Plant response rating, Galium [9, 27]: 95
Oilseed Rape plant response rating [10, 24]: 5
Oilseed Rape plant response rating [10, 18]: 30
Plant response rating, Oilseed Rape [10, 19]: 60
Plant response rating, Oilseed Rape [10, 20]: 95
Plant response rating (scale 0 to 100), Oilseed Rape ([10]; Preemergence, 125 g ai/ha): 100
Plant response rating, Oilseed Rape [10, 25]: 85
Plant response rating, Oilseed Rape [10, 26]: 98
Plant response rating, Oilseed Rape [10, 27]: 100
Wheat plant response rating [11, 24]: 0
Wheat plant response rating [11, 18]: 0
Plant response rating, Wheat [11, 19]: 0
Plant response rating, Wheat [11, 20]: 5
Plant response rating (scale 0 to 100), Wheat ([11]; Preemergence, 125 g ai/ha): 5
Plant response rating, Wheat [11, 25]: 0
Plant response rating, Wheat [11, 26]: 0
Plant response rating, Wheat [11, 27]: 0
Johnsongrass plant response rating [12, 24]: 5
Johnsongrass plant response rating [12, 18]: 5
Plant response rating, Johnsongrass [12, 19]: 10
Plant response rating, Johnsongrass [12, 20]: 45
Plant response rating (scale 0 to 100), Johnsongrass ([12]; Preemergence, 125 g ai/ha): 100
Plant response rating, Johnsongrass [12, 25]: 10
Plant response rating, Johnsongrass [12, 26]: 70
Plant response rating, Johnsongrass [12, 27]: 85
Nutsedge, Yellow plant response rating [13, 24]: 5
Nutsedge, Yellow plant response rating [13, 18]: 5
Plant response rating, Nutsedge, Yellow [13, 19]: 10
Plant response rating, Nutsedge, Yellow [13, 20]: 10
Plant response rating (scale 0 to 100), Nutsedge, Yellow ([13]; Preemergence, 125 g ai/ha): 65
Plant response rating, Nutsedge, Yellow [13, 25]: 0
Plant response rating, Nutsedge, Yellow [13, 26]: 0
Plant response rating, Nutsedge, Yellow [13, 27]: 15
